pIC50: −log10 of the molar value. Where “and” joins values, the source holds several entries; their conditions need not be identical. Equal values may be shown once. Read-outs that look alike come from different tables or passages of the source.
Legend:
[1] = test system: PGD2 induced eosinophil shape change; assay: Human whole blood eosinophil shape change assay; type: cell-based; details: Homo sapiens, Eosinophil
Procedure: Human Whole Blood Eosinophil Shape Change Assay
Compounds 1 to 3 were assayed for their effect on PGD2 induced eosinophil shape change and were compared with Comparator Compounds A to G.
Shape Change Assay in Whole Blood
Compounds (1 μl, 200× final concentration) were added directly to 200 μl whole blood, mixed well and incubated for 15 min, 37° C., 5% CO2. After this time, cell shape was fixed by addition of 300 μl Cytofix™ buffer (BD Biosciences), 15 min on ice. 10 ml RBC lysis buffer was added to the fixed cells, incubated 5 min, at room temperature and centrifuged, 300×g for 5 min. Supernatant (containing lysed red cells) was removed and the lysis step was repeated. Leukocytes were resuspended in 250 μl RPMI/10% FCS and shape change analysed by FACS. Eosinophils were gated out based on their autofluorescence and 2000 eosinophil events were counted per sample. Data were analysed in triplicate.

[2] = Pharmacokinetics following oral administration in the rat; type: in vivo
Procedure: Investigation of Pharmacokinetics of Compounds of General Formula (I) Following Oral Administration in the Rat
Rats were weighed on the day of dosing.
The test material was prepared as a 0.3 mg/mL suspension in 1% carboxy-methyl-cellulose (CMC).
Three groups of 3 rats were dosed as follows:
Doses were administered as a single oral dose using a gavage tube at a constant dose volume of 10 mL/kg.
At each sampling time point blood samples (approximately 0.3 mL) was taken from a catheter inserted into a lateral tail vein prior to the start of the experiment. The final blood sample (approximately 2 mL) from each animal was taken by cardiac puncture under isoflurane anaesthesia following which the animal was killed by exsanguination. Blood samples were taken into individual heparinised containers. Blood samples were collected at the following times post-dose:
Following collection, the blood samples were centrifuged (approximately 10,000×g, 2 min at 4° C.) and the plasma stored as one aliquot at approximately −20° C. pending analysis of drug concentrations by LC-MS/MS.
The plasma samples were analysed for test material concentrations at BioDynamics using an LC-MS/MS method developed at BioDynamics.

[3] = test system: DK-PGD2-induced blood eosinophilia; assay: Inhibition of DK-PGD2-induced blood eosinophilia in rats; type: in vivo, rat; details: female rats, oral dosing 30 min before 10 μg DK-PGD2 intracardiac; ED50 from dose-response curve; the values are: ED50
Procedure: Evaluation of Compounds of General Formula (I) as Inhibitors of 13,14-dihydro-15-keto prostaglandin D2 (DK-PGD2)-Induced Blood Eosinophilia in Rats
The test compound was dissolved in DMSO and diluted with water to give a final dosing volume of 2 ml/kg.
Female rats (175-250 g; UH colony) were dosed orally with test compound (or vehicle).
30 min after dosing all animals were anaesthetised with isoflurane.
Following induction of anaesthesia, animals receive an intracardiac injection of 10 μg DK-PGD2 in 0.3 ml heparinised (10 U/ml) saline. Control animals received an injection of 0.3 ml heparinised saline.
60 min after the intracardiac injection, animals were injected with an overdose of pentobarbitone sodium and a blood sample was taken (into heparin) by cardiac puncture while the rat was anaesthetised but not dead.
An aliquot of blood (100 μl) was added to Turk's solution and the total leukocyte count determined with a haemocytometer.
A further aliquot of blood (500 μl) was mixed with an equal volume of 4% Dextran (mw 500,000) and the erythrocytes allowed to settle. A cytospin preparation was made from the resulting leukocyte rich fraction.
Cytospin preparations were fixed with methanol (5 min) and stained with May-Grunwald (5 min) and Giemsa (15 min) stains. Finally cytospins were washed in phosphate buffer (pH6.8) and air dried.
Differential leukocyte counts were obtained from the cytospin preparations.
Blood eosinophil numbers were determined from the total leukocyte count and the percentage eosinophils (differential count).
Because it was impractical to generate sufficient data in any given experiment, data were obtained over a number of replicate experiments. Data from these replicate experiments were pooled, to provide at least 5 animals in each group and a dose-response curve fitted following a significance test (Mann Whitney) to determine whether or not DK-PGD2 caused a significant increase in blood eosinophils (GraphPad, Prism). A difference between groups was taken to be significant when P<0.05. ED50 values were calculated from the dose-response curve.

[4] = rat, 3 mg/kg p.o, individual male animals, 3 mg/kg

Q: With `Cc1c(Cc2ccc(S(C)(=O)=O)cc2)c2cc(F)ccc2n1CC(=O)O` [Compound B, [5-Fluoro-3-(4-methanesulfonyl-benzyl)-2-methyl-indol-1-yl]-acetic acid, reference compound] as the compound, how does the pIC50 ([1]; 10 nm PGD2-induced eosinophil shape change, human whole blood, read-out: Whole Blood IC50) read?
A: The pIC50 was 8.10.

Q: And the pIC50 ([1]; Table 12 summary of whole blood eosinophil shape change IC50, read-out: IC50 (μmol))?
A: The pIC50 was 8.10.

Q: What about the IC50 ([1]; whole blood eosinophil shape change IC50 converted to ng/mL, read-out: IC50) of the same compound?
A: The IC50 was 3 ng/mL.

Q: What about the pIC50 ([1]; read-out: IC50 in the whole blood eosinophil shape change assay) of the same compound?
A: The pIC50 was 8.10.

Q: What about the concentration at 0.25 h ([2]; male, rat, plasma, po, 3 mg/kg, rat, 3 mg/kg oral, 0.25 h, individual male animals, read-out: Concentration in Blood) of the same compound?
A: Its concentration at 0.25 h is 91.8 ng/mL.

Q: What about the concentration at 0.25 h ([2]; male, rat, plasma, po, 3 mg/kg, rat, 3 mg/kg oral, 0.25 h, mean, read-out: Concentration in Blood, Mean) of the same compound?
A: The concentration at 0.25 h was 87.6 ng/mL.

Q: And the concentration at 0.5 h ([2]; male, rat, plasma, po, 3 mg/kg, rat, 3 mg/kg oral, 0.5 h, individual male animals, read-out: Concentration in Blood)?
A: Its concentration at 0.5 h is 121 ng/mL.

Q: What about the concentration at 0.5 h ([2]; male, rat, plasma, po, 3 mg/kg, rat, 3 mg/kg oral, 0.5 h, mean, read-out: Concentration in Blood, Mean) of the same compound?
A: Its concentration at 0.5 h is 140 ng/mL.

Q: What about the concentration at 1 h ([2]; male, rat, plasma, po, 3 mg/kg, rat, 3 mg/kg oral, 1 h, individual male animals, read-out: Concentration in Blood) of the same compound?
A: Its concentration at 1 h is 252 ng/mL.

Q: What about the concentration at 1 h ([2]; male, rat, plasma, po, 3 mg/kg, rat, 3 mg/kg oral, 1 h, mean, read-out: Concentration in Blood, Mean) of the same compound?
A: Its concentration at 1 h is 255 ng/mL.

Q: And the concentration at 2 h ([2]; male, rat, plasma, po, 3 mg/kg, rat, 3 mg/kg oral, 2 h, mean, read-out: Concentration in Blood, Mean)?
A: The concentration at 2 h was 381 ng/mL.

Q: What about the concentration at 4 h ([2]; male, rat, plasma, po, 3 mg/kg, rat, 3 mg/kg oral, 4 h, mean, read-out: Concentration in Blood, Mean) of the same compound?
A: Its concentration at 4 h is 283 ng/mL.

Q: What about the concentration at 6 h ([2]; male, rat, plasma, po, 3 mg/kg, rat, 3 mg/kg oral, 6 h, mean, read-out: Concentration in Blood, Mean) of the same compound?
A: The concentration at 6 h was 182 ng/mL.

Q: What about the concentration at 8 h ([2]; male, rat, plasma, po, 3 mg/kg, rat, 3 mg/kg oral, 8 h, mean, read-out: Concentration in Blood, Mean) of the same compound?
A: Its concentration at 8 h is 114 ng/mL.

Q: What about the concentration at 12 h ([2]; male, rat, plasma, po, 3 mg/kg, rat, 3 mg/kg oral, 12 h, mean, read-out: Concentration in Blood, Mean) of the same compound?
A: The concentration at 12 h was 27.3 ng/mL.

Q: What about the concentration at 24 h ([2]; male, rat, plasma, po, 3 mg/kg, rat, 3 mg/kg oral, 24 h, individual male animals, read-out: Concentration in Blood) of the same compound?
A: The concentration at 24 h was 0 ng/mL.

Q: And the concentration at 24 h ([2]; male, rat, plasma, po, 3 mg/kg, rat, 3 mg/kg oral, 24 h, mean, read-out: Concentration in Blood, Mean)?
A: Its concentration at 24 h is 0 ng/mL.

Q: And the Tmax ([2]; male, rat, plasma, po, 3 mg/kg, rat, 3 mg/kg p.o, individual male animals, read-out: Tmax)?
A: Its Tmax is 2 h.

Q: What about the half-life ([2]; male, rat, plasma, po, 3 mg/kg, rat, 3 mg/kg p.o, individual male animals, read-out: T½ (converted)) of the same compound?
A: The half-life was 3.41 h.

Q: And the AUC(0-inf) ([2]; male, rat, plasma, po, 3 mg/kg, rat, 3 mg/kg p.o, mean, summary without unit (Table 12), read-out: AUCinf (mean))?
A: Its AUC(0-inf) is 2200 ng·h/mL.

Q: And the Cmax ([2]; male, rat, plasma, po, 3 mg/kg, rat, 3 mg/kg p.o, mean, summary without unit (Table 12), read-out: Cmax (mean))?
A: Its Cmax is 381 ng/mL.

Q: What about the AUC(0-inf) ([2]; male, rat, plasma, po, 3 mg/kg, rat, 3 mg/kg p.o, mean, read-out: AUCinf, Mean) of the same compound?
A: Its AUC(0-inf) is 2200 ng·h/mL.

Q: What about the Cmax ([2]; male, rat, plasma, po, 3 mg/kg, rat, 3 mg/kg p.o, mean, read-out: Cmax, Mean) of the same compound?
A: Its Cmax is 381 ng/mL.

Q: What about the Tmax ([2]; male, rat, plasma, po, 3 mg/kg, rat, 3 mg/kg p.o, mean, read-out: Tmax, Mean) of the same compound?
A: Its Tmax is 2 h.

Q: And the half-life ([2]; male, rat, plasma, po, 3 mg/kg, rat, 3 mg/kg p.o, mean, read-out: T½, Mean (converted))?
A: The half-life was 2.4 h.

Q: What about the “Fold over IC50 at 24 h” value ([2]; mean blood concentration at 24 h (rat, 3 mg/kg p.o.) divided by whole blood IC50 in ng/ml) of the same compound?
A: The value was 0.

Q: And the “Concentration in Blood” value ([2]; rat, 3 mg/kg oral, 0.25 h, individual male animals, 3 mg/kg)?
A: The value was 113.6 ng/mL and 57.3 ng/mL.

Q: And the “Concentration in Blood” value ([2]; rat, 3 mg/kg oral, 0.5 h, individual male animals, 3 mg/kg)?
A: The value was 165.7 ng/mL and 132.1 ng/mL.

Q: What about the “Concentration in Blood” value ([2]; rat, 3 mg/kg oral, 1 h, individual male animals, 3 mg/kg) of the same compound?
A: The value was 295.1 ng/mL and 217.5 ng/mL.

Q: What about the “Concentration in Blood” value ([2]; rat, 3 mg/kg oral, 2 h, individual male animals, 3 mg/kg) of the same compound?
A: Its value is 349.9 ng/mL and 536.9 ng/mL and 256.2 ng/mL.

Q: What about the “Concentration in Blood” value ([2]; rat, 3 mg/kg oral, 4 h, individual male animals, 3 mg/kg) of the same compound?
A: The value was 179.4 ng/mL and 485.2 ng/mL and 184.9 ng/mL.

Q: And the “Concentration in Blood” value ([2]; rat, 3 mg/kg oral, 6 h, individual male animals, 3 mg/kg)?
A: Its value is 128.3 ng/mL and 292.2 ng/mL and 125.8 ng/mL.

Q: And the “Concentration in Blood” value ([2]; rat, 3 mg/kg oral, 8 h, individual male animals, 3 mg/kg)?
A: The value was 72.1 ng/mL and 184.5 ng/mL and 84.7 ng/mL.

Q: And the “Concentration in Blood” value ([2]; rat, 3 mg/kg oral, 12 h, individual male animals, 3 mg/kg)?
A: The value was 36.5 ng/mL and 31.0 ng/mL and 14.5 ng/mL.

Q: And the “Concentration in Blood” value ([2]; rat, 3 mg/kg oral, 24 h, individual male animals)?
A: The value was 0 ng/mL.

Q: What about the AUCinf [2, 4] of the same compound?
A: Its AUCinf is 1831.4 ng·h/mL and 3256.1 ng·h/mL and 1505.1 ng·h/mL.

Q: And the Cmax [2, 4]?
A: Its Cmax is 349.9 ng/mL and 536.9 ng/mL and 256.2 ng/mL.

Q: And the T½ [2, 4]?
A: The T½ was 1.80 h and 1.86 h.

Q: And the “AUCinf (mean)” value ([2]; rat, 3 mg/kg p.o, mean, summary without unit (Table 12), 3 mg/kg, in ng·h/mL)?
A: Its value is 2198.

Q: And the Potency in inhibition of DK-PGD2-induced blood eosinophilia [3]?
A: The Potency in inhibition of DK-PGD2-induced blood eosinophilia was 17 mg/kg.
